The values below come from PMC4865820, “Branched Peptide, B2088, Disrupts the Supramolecular Organization of Lipopolysaccharides and Sensitizes the Gram-negative Bacteria” (Scientific Reports, 2016).

In brackets after ≈: the same amount, converted by molar mass.

The subject of assay [1] is P. aeruginosa DR4877/07. The assay is described as follows: microbe, parasite or virus in culture. The conditions noted are these: Pseudomonas aeruginosa, DR4877/07, 24 h, read-out: MIC of antibiotics. On the procedure:
(§1) MIC of each peptide was determined using the microdilution method in a 96 well microtitre plates (SPL Life Sciences Co., Ltd, Korea). Two-fold serial dilutions of each peptide in Mueller-Hinton Broth (MHB) was prepared from a 1 mg/ml stock solution of the peptide in the same broth, to obtain a final concentration in the range of 0.0976–50 μg/ml in each well. Bacterial suspensions (P. aeruginosa ATCC 27853, P. aeruginosa 4877, P. aeruginosa 23155, K. pneumoniae ATCC 10031 and K. pneumoniae 4299) were prepared by suspending the overnight cultured bacteria in saline and adjusting the inoculum to ~10^8 colony forming units (CFU) per ml. A further 150-fold dilution was then prepared in MHB to achieve a final cell density of 10^5–10^6 CFU/ml. In each well, 100 μl of inoculum was mixed with the equal volume of peptides at their 2× concentration. Positive and negative controls contained 200 μl of inoculum (without any peptide) and broth alone (no peptide/inoculum) respectively. Another negative control in which MHB containing 200 μl of peptide alone in its highest concentration tested (50 μg/ml) was also included to ensure that the optical density measured in the test wells was not due to turbidity of the peptides in solution. The 96 well polystyrene plates were then incubated at 37 °C for 24 h and the optical density at 600 nm (OD600) was measured every 30 min continuously using a TECAN microplate reader (TECAN Infinite 200, Austria).

Assay [2] concerns P. aeruginosa DR4877/07. It is filed as cell-based. The following applies: for FICI of B2088-antibiotic combination: lowest FICI reported, two independent duplicates; for Fold decrease in the MIC of antibiotics at sub-lethal/sub-inhibitory concentrations of B2088: multidrug resistant P. aeruginosa 4877. In a few lines: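 Checkerboard combinations of peptide and antibiotic, each 2-fold diluted up to 1× MIC in MHB, were tested against ~10^6 CFU/ml final inoculum. Plates were incubated 24 h at 37 °C, with growth read at OD600. FICI was the sum of the combination-to-alone MIC ratios for each agent, and the lowest FICI from duplicate experiments was reported.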

The subject of assay [3] is E. coli D21 and LPS outer core polysaccharide truncated mutant strains. The assay is described as follows: MIC ratio against LPS-truncated E. coli mutants. It is filed as cell-based. The conditions noted are these: oligosaccharide-truncated mutants vs wild type D21; increase seen against D21e9 lacking outer core polysaccharides.
From the text: LPS is a complex glycosylated lipid molecule comprising of a hydrophobic lipid A and core oligosaccharides. The core oligosaccharides are structurally divided into an inner core (lipid A proximal) region and an outer core O-antigen region (Fig. 4a). To ascertain if the alterations in OM polysaccharides modify the barrier penetration and antimicrobial properties of the peptides, we determined the MIC of the peptides against 4 cell-wall defective mutants of E. coli (Fig. 4a). We report the MIC ratio (i.e., MICmut/MICwt) which is the ratio of MIC of peptides/antibiotics against oligosaccharides truncated mutant strains over MIC of wild type (D21) strains. For antibiotics that access intracellular targets through porin pathways or peptides that bind to the lipid A part of the LPS, the MIC ratio is independent of LPS truncation (Fig. 4b). However, antibiotics or peptides which interact with outer or inner core polysaccharides of the LPS are expected to show changes in the MIC ratio.
All the peptide congeners were purchased from M/s. Mimotopes Pty Ltd, Australia. The peptides were used as such and the homogeneity of peptides were confirmed by HPLC. Unless otherwise stated all the chemicals and the antibiotics tested were purchased from Sigma Aldrich (Singapore) Pte Ltd. The florescent probe, BODIPY TR cadaverine (BC) was purchased from Molecular Probes/ Invitrogen (CA, USA). E. coli LPS outer core polysaccharide truncated mutant strains were obtained from CGSG, The Coli Genetic Stock Centre, Yale University, […], USA. Relevant genotype of the strains are, D21 (rfa+); D21e19 (rfa-11) is a deficient mutant in carbohydrates close to the O-antigen part; D21e7 (rfa-1) is deficient in galactose as well as O-antigen; D21f1 (rfa-1, rfa21) lacks phosphate groups in the LPS has glucose and heptose intact; D21f2 (rfa-1, rfa-31) is deficient in heptose of the inner core[57][58].
as §1, with “Austria). All the experiments were performed in two independent duplicates and the MIC was determined as the lowest peptide concentration in which no visible growth was observed.” for “Austria).”

Assay [4] relates to K. pneumoniae 07955. The assay is described as follows: microbe, parasite or virus in culture. It counts as cell-based. The following applies: Klebsiella pneumoniae, 07955; individual peptide/antibiotics; read-out: MIC against K. pneumoniae 07955.
The test system of assay [5] is K. pneumonia 4299. Description: microbe, parasite or virus in culture. It counts as cell-based, K. pneumoniae. The following applies: Klebsiella pneumoniae, 4299; individual peptide/antibiotics; read-out: MIC against K. pneumoniae 4299. In a few lines: (§2)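 Peptides two-fold diluted in Mueller-Hinton Broth (0.0976–50 μg/ml final) against 10^5–10^6 CFU/ml inoculum, 37 °C for 24 h with OD600 monitored every 30 min. MIC = lowest concentration with no visible growth; two independent duplicates.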

The subject of assay [6] is K. pneumoniae 31158. Description: microbe, parasite or virus in culture. It is filed as cell-based. The following applies: Klebsiella pneumoniae, 31158; individual peptide/antibiotics; read-out: MIC against K. pneumoniae 31158.
In assay [7] the test system is K. pneumonia 31158. The assay is described as follows: Checkerboard assay. It is filed as cell-based, K. pneumoniae. The following applies: for Fractional inhibitory concentration of B2088 used for FICI calculation: first number in parenthesis, in combination with the labelled antibiotic; for Fractional inhibitory concentration of antibiotic used for FICI calculation: second number in parenthesis, in combination with B2088. On the procedure: (§3) The synergism between peptides with conventional antibiotics was evaluated using checkerboard assays. For a comparison polymyxin B (PMB) was also tested against each antibiotic. From their stock solutions, two-fold dilutions of each antibiotic and peptide to 1× MIC were prepared in MHB. 50 μl of each peptide concentration was added into the wells of a 96-well polystyrene plates (SPL Life Sciences Co. Ltd, Korea) in a horizontal orientation and the same volume of each antibiotic concentration were then added in a vertical orientation. Bacterial suspensions were prepared in MHB to yield final cell density of ~10^6 CFU/ml and 100 μl of bacterial suspension was mixed with each peptide-antibiotic combinations. This procedure was repeated for wells containing 200 μl of peptide alone and 200 μl of antibiotic alone in various concentrations. The positive and negative controls contained 200 μl of inoculum and MHB alone respectively. The plates were incubated at 37 °C for 24 hours and the optical density at 600 nm (OD600) was monitored as before. Fractional inhibitory concentration index (FICI) for all antibiotic- peptide combinations was calculated through the summation of (MIC of peptide in the combination/ MIC of peptide alone) and (MIC of antibiotics in combination/MIC of antibiotic alone). The experiments were performed in two independent duplicates and the combinations that gave the lowest FICI values was reported.

Assay [8] has as its system K. pneumonia 07955. The assay is described as follows: Checkerboard assay. The conditions noted are these: for Fractional inhibitory concentration of B2088 used for FICI calculation: first number in parenthesis, in combination with the labelled antibiotic; for Fractional inhibitory concentration of antibiotic used for FICI calculation: second number in parenthesis, in combination with B2088. It counts as cell-based, K. pneumoniae. How it is done: as §3

In assay [9] the test system is K. pneumonia 4299. Description: Checkerboard assay. It is filed as cell-based, K. pneumoniae. The conditions noted are these: for Fractional inhibitory concentration of B2088 used for FICI calculation: first number in parenthesis, in combination with the labelled antibiotic; for Fractional inhibitory concentration of antibiotic used for FICI calculation: second number in parenthesis, in combination with B2088. On the procedure: as §3

Assay [10] has as its system P. aeruginosa ATCC 9027. Description: Checkerboard assay. It is filed as cell-based. On the procedure: as §3
The subject of assay [11] is P. aeruginosa ATCC 9027. The assay is described as follows: MIC, microdilution. It counts as cell-based. For orientation: Broth dilution looks for growth in wells or tubes with falling amounts of substance.
Assay [12] deals with P. aeruginosa ATCC 27853. The assay is described as follows: microbe, parasite or virus in culture. The conditions noted are these: Pseudomonas aeruginosa, ATCC27853; antibiotic alone; read-out: MIC of gentamicin against this strain. It is filed as cell-based. The essentials:
as §2

[13] abbreviates: MIC of B2088 6.25 μg/ml, MHB, ~10^6 CFU/ml, 37 °C, 24 h.

Take `CC1(C)S[C@@H]2[C@H](NC(=O)C(C(=O)O)c3ccccc3)C(=O)N2[C@H]1C(=O)O` (stereo partly drawn) [Carbenicillin, reference compound]: the MIC in assay [1] worked out at 1600 µg/mL. Also, in [2] (setting [13]), the “MIC of antibiotics in the presence of ¼× sub-MIC of B2088” value (from here on “MIC … of ¼× sub-MIC of B2088”) is 800 µg/mL and the “MIC of antibiotics in the presence of ½× sub-MIC of B2088” value (shortened to “MIC … of ½× sub-MIC of B2088”) stood at 200 µg/mL. The “FICI of B2088-antibiotic combination” value in assay [2] turned out to be 0.63. Besides, in [3], the “MIC ratio (MICmut/MICwt)” value is “did not show any change”.

With `O=C(N[C@H](CO)[C@H](O)c1ccc([N+](=O)[O-])cc1)C(Cl)Cl` [Chloramphenicol], in [4], the MIC came to 50 µg/mL (≈ 155 µM). The MIC in [1] amounted to 200 µg/mL. For the same compound, in assay [2], the “FICI of polymyxin B-antibiotic combination” value is recorded as 0.63, the “FICI of B2088-antibiotic combination” value worked out at 0.5 and the “Fold decrease in the MIC of antibiotics at sub-lethal/sub-inhibitory concentrations of B2088” value came out at 4 fold. For the same compound, in assay [2] (setting [13]), the “MIC … of ¼× sub-MIC of B2088” value worked out at 50 µg/mL, the “MIC … of ½× sub-MIC of B2088” value is 25 µg/mL and the “MIC of antibiotics in the presence of ⅛× sub-MIC of B2088” value came to 100 µg/mL. In assay [5], the MIC was 12.5 µg/mL (≈ 38.7 µM). For the same compound, the “MIC ratio (MICmut/MICwt)” value in [3] is listed as “marked increase”. Besides, the MIC in assay [6] was 3.12 µg/mL (≈ 9.67 µM). Besides, in [7], the “Fractional Inhibitory Concentration Index of B2088 with the antibiotic” value was found to be 0.63, the “Fractional inhibitory concentration of B2088 used for FICI calculation” value was 0.5 and the “Fractional inhibitory concentration of antibiotic used for FICI calculation” value is recorded as 0.13. For the same compound, in [8], the “Fractional Inhibitory Concentration Index of B2088 with the antibiotic” value amounted to 0.38, the “Fractional inhibitory concentration of B2088 used for FICI calculation” value is listed as 0.13 and the “Fractional inhibitory concentration of antibiotic used for FICI calculation” value is recorded as 0.25. In [9], the “Fractional Inhibitory Concentration Index of B2088 with the antibiotic” value was 0.38, the “Fractional inhibitory concentration of B2088 used for FICI calculation” value was 0.13 and the “Fractional inhibitory concentration of antibiotic used for FICI calculation” value is 0.25.

For the compound `CNC(C)C1CCC(N)C(OC2C(N)CC(N)C(OC3OCC(C)(O)C(NC)C3O)C2O)O1` (stereo not drawn) [Gentamicin], the MIC in [4] worked out at 100 µg/mL (≈ 209 µM). Moreover, in assay [10] (Gentamycin), the “FICI of polymyxin B-antibiotic combination” value is recorded as 1.0 and the MIC of antibiotics in the presence of ½ × sub-MIC of Polymyxin B amounted to 0.195 µg/mL. In [10] (gentamicin), the “MIC … of ¼× sub-MIC of B2088” value is 0.098 µg/mL, the “MIC … of ½× sub-MIC of B2088” value worked out at 0.024 µg/mL and the “MIC of antibiotics in the presence of ⅛× sub-MIC of B2088” value was 0.195 µg/mL. In assay [10] (gentamicin, lowest FICI reported), the “FICI of B2088-antibiotic combination” value came to 0.5. Also, the MIC of antibiotics (Table S1) in [11] (Gentamycin alone, ATCC 9027) was found to be 0.39 µg/mL. Besides, in assay [11] (gentamicin alone, ATCC 9027 used because DR4877/07 too resistant), the MIC of antibiotics came out at 0.39 µg/mL. For the same compound, the “Fold decrease in the MIC of antibiotics at sub-lethal/sub-inhibitory concentrations of B2088” value in assay [2] was 4 fold. Also, the MIC in [12] turned out to be 0.04 µg/mL. In addition, the MIC in assay [5] was found to be 0.39 µg/mL (≈ 0.817 µM). In [3], the “MIC ratio (MICmut/MICwt)” value is given as “marked increase”. In addition, the MIC in [6] stood at 0.05 µg/mL (≈ 0.105 µM). In [7], the “Fractional Inhibitory Concentration Index of B2088 with the antibiotic” value is on record as 0.31, the “Fractional inhibitory concentration of B2088 used for FICI calculation” value is given as 0.25 and the “Fractional inhibitory concentration of antibiotic used for FICI calculation” value is recorded as 0.06. Also, in assay [8], the “Fractional Inhibitory Concentration Index of B2088 with the antibiotic” value was determined as 0.75, the “Fractional inhibitory concentration of B2088 used for FICI calculation” value is 0.25 and the “Fractional inhibitory concentration of antibiotic used for FICI calculation” value is 0.5. In addition, in assay [9], the “Fractional Inhibitory Concentration Index of B2088 with the antibiotic” value is on record as 0.37, the “Fractional inhibitory concentration of B2088 used for FICI calculation” value is given as 0.125 and the “Fractional inhibitory concentration of antibiotic used for FICI calculation” value is given as 0.25.
